# Patent publication US12427134B2, “Methods of reducing the risk of cardiovascular events in a subject with atrial fibrillation and/or atrial flutter” (priority 2019, dated 2025)
# System: hypertriglyceridemic patients with cardiovascular disease or at high risk for cardiovascular disease
# Assay: REDUCE-IT: treatment-emergent adverse events and serious adverse events (safety population)
# [1] = BMI ≥25 to <30 kg/m^2 (N = 1427)
# [2] = No Ezetimibe at baseline (N = 3827)
# [3] = Region Eastern Europe (N = 1053)
compound,measurement,setting,value
"CC/C=C\C/C=C\C/C=C\C/C=C\C/C=C\CCCC(=O)OCC [AMR101, eicosapentaenoic acid ethyl ester]","Patients with at least 1 TEAE, %",Age <65 years (N = 2232),(77.3) %
same,"TEAE: GI disorders, %",Age <65 years (N = 2232),(27.9) %
same,"TEAE: General disorders and administration site condition, %",Age <65 years (N = 2232),(21.6) %
same,"TEAE: Musculoskeletal and connective tissue disorders, %",Age <65 years (N = 2232),(31.4) %
same,"TEAE: Nervous system disorders, %",Age <65 years (N = 2232),(20.3) %
same,"TEAE: Respiratory, thoracic, and mediastinal disorders, %",Age <65 years (N = 2232),(18.9) %
same,"Patients with at least 1 TEAE, %",Age ≥65 years (N = 1857),(87.1) %
same,"TEAE: GI disorders, %",Age ≥65 years (N = 1857),(39.2) %
same,"TEAE: General disorders and administration site condition, %",Age ≥65 years (N = 1857),(29.5) %
same,"TEAE: Musculoskeletal and connective tissue disorders, %",Age ≥65 years (N = 1857),(41.2) %
same,"TEAE: Nervous system disorders, %",Age ≥65 years (N = 1857),(29.7) %
same,"TEAE: Respiratory, thoracic, and mediastinal disorders, %",Age ≥65 years (N = 1857),(30.5) %
same,"TEAEs, overall incidence",Asia Pacific region subgroup,76.9%
same,"TEAE class nervous system disorders, patients",Asian Pacific region subgroup,20.8%
same,"Patients with at least 1 TEAE, %",BMI <25 kg/m^2 (N = 320),(80.6) %
same,"TEAE: GI disorders, %",BMI <25 kg/m^2 (N = 320),(33.8) %
same,"TEAE: General disorders and administration site condition, %",BMI <25 kg/m^2 (N = 320),(23.1) %
same,"TEAE: Musculoskeletal and connective tissue disorders, %",BMI <25 kg/m^2 (N = 320),(26.9) %
same,"TEAE: Nervous system disorders, %",BMI <25 kg/m^2 (N = 320),(22.8) %
same,"TEAE: Respiratory, thoracic, and mediastinal disorders, %",BMI <25 kg/m^2 (N = 320),(21.3) %
same,"Patients with at least 1 TEAE, %",[1],(81.5) %
same,"TEAE: GI disorders, %",[1],(30.8) %
same,"TEAE: General disorders and administration site condition, %",[1],(24.0) %
same,"TEAE: Musculoskeletal and connective tissue disorders, %",[1],(33.4) %
same,"TEAE: Nervous system disorders, %",[1],(23.6) %
same,"TEAE: Respiratory, thoracic, and mediastinal disorders, %",[1],(22.7) %
same,"TEAE class GI disorders, patients",BMI ≥25 to <30 kg/m^2 subgroup,30.8%
same,"Patients with at least 1 TEAE, %",BMI ≥30 kg/m^2 (N = 2331),(82.3) %
same,"TEAE: GI disorders, %",BMI ≥30 kg/m^2 (N = 2331),(34.3) %
same,"TEAE: General disorders and administration site condition, %",BMI ≥30 kg/m^2 (N = 2331),(26.3) %
same,"TEAE: Musculoskeletal and connective tissue disorders, %",BMI ≥30 kg/m^2 (N = 2331),(38.7) %
same,"TEAE: Nervous system disorders, %",BMI ≥30 kg/m^2 (N = 2331),(25.5) %
same,"TEAE: Respiratory, thoracic, and mediastinal disorders, %",BMI ≥30 kg/m^2 (N = 2331),(25.6) %
same,"Patients with at least 1 TEAE, %",Baseline Ezetimibe (N = 262),(92.0) %
same,"TEAE: GI disorders, %",Baseline Ezetimibe (N = 262),(37.4) %
same,"TEAE: General disorders and administration site condition, %",Baseline Ezetimibe (N = 262),(26.3) %
same,"TEAE: Musculoskeletal and connective tissue disorders, %",Baseline Ezetimibe (N = 262),(41.2) %
same,"TEAE: Nervous system disorders, %",Baseline Ezetimibe (N = 262),(23.7) %
same,"TEAE: Respiratory, thoracic, and mediastinal disorders, %",Baseline Ezetimibe (N = 262),(27.5) %
same,"Patients with at least 1 TEAE, %",CV Risk Category 1 (N = 2892),(81.6) %
same,"TEAE: GI disorders, %",CV Risk Category 1 (N = 2892),(31.3) %
same,"TEAE: General disorders and administration site condition, %",CV Risk Category 1 (N = 2892),(25.3) %
same,"TEAE: Musculoskeletal and connective tissue disorders, %",CV Risk Category 1 (N = 2892),(33.6) %
same,"TEAE: Nervous system disorders, %",CV Risk Category 1 (N = 2892),(23.4) %
same,"TEAE: Respiratory, thoracic, and mediastinal disorders, %",CV Risk Category 1 (N = 2892),(23.4) %
same,"Patients with at least 1 TEAE, %",CV Risk Category 2 (N = 1197),(82.1) %
same,"TEAE: GI disorders, %",CV Risk Category 2 (N = 1197),(37.2) %
same,"TEAE: General disorders and administration site condition, %",CV Risk Category 2 (N = 1197),(24.9) %
same,"TEAE: Musculoskeletal and connective tissue disorders, %",CV Risk Category 2 (N = 1197),(41.3) %
same,"TEAE: Nervous system disorders, %",CV Risk Category 2 (N = 1197),(27.4) %
same,"TEAE: Respiratory, thoracic, and mediastinal disorders, %",CV Risk Category 2 (N = 1197),(26.1) %
same,"Patients with at least 1 TEAE, %",Female (N = 1162),(79.9) %
same,"TEAE: GI disorders, %",Female (N = 1162),(38.3) %
same,"TEAE: General disorders and administration site condition, %",Female (N = 1162),(25.5) %
same,"TEAE: Musculoskeletal and connective tissue disorders, %",Female (N = 1162),(37.6) %
same,"TEAE: Nervous system disorders, %",Female (N = 1162),(27.6) %
same,"TEAE: Respiratory, thoracic, and mediastinal disorders, %",Female (N = 1162),(23.4) %
same,"Patients with at least 1 TEAE, %",Male (N = 2927),(82.5) %
same,"TEAE: GI disorders, %",Male (N = 2927),(30.9) %
same,"TEAE: General disorders and administration site condition, %",Male (N = 2927),(25.1) %
same,"TEAE: Musculoskeletal and connective tissue disorders, %",Male (N = 2927),(35.2) %
same,"TEAE: Nervous system disorders, %",Male (N = 2927),(23.3) %
same,"TEAE: Respiratory, thoracic, and mediastinal disorders, %",Male (N = 2927),(24.5) %
same,"Patients with at least 1 TEAE, %",[2],(81.1) %
same,"TEAE: GI disorders, %",[2],(32.7) %
same,"TEAE: General disorders and administration site condition, %",[2],(25.1) %
same,"TEAE: Musculoskeletal and connective tissue disorders, %",[2],(35.5) %
same,"TEAE: Nervous system disorders, %",[2],(24.6) %
same,"TEAE: Respiratory, thoracic, and mediastinal disorders, %",[2],(24.0) %
same,"Patients with at least 1 TEAE, %",Race Non-white (N = 398),(81.4) %
same,"TEAE: GI disorders, %",Race Non-white (N = 398),(28.9) %
same,"TEAE: General disorders and administration site condition, %",Race Non-white (N = 398),(25.4) %
same,"TEAE: Musculoskeletal and connective tissue disorders, %",Race Non-white (N = 398),(30.9) %
same,"TEAE: Nervous system disorders, %",Race Non-white (N = 398),(23.4) %
same,"TEAE: Respiratory, thoracic, and mediastinal disorders, %",Race Non-white (N = 398),(23.9) %
same,"Patients with at least 1 TEAE, %",Race White (N = 3691),(81.8) %
same,"TEAE: GI disorders, %",Race White (N = 3691),(33.5) %
same,"TEAE: General disorders and administration site condition, %",Race White (N = 3691),(25.2) %
same,"TEAE: Musculoskeletal and connective tissue disorders, %",Race White (N = 3691),(36.4) %
same,"TEAE: Nervous system disorders, %",Race White (N = 3691),(24.7) %
same,"TEAE: Respiratory, thoracic, and mediastinal disorders, %",Race White (N = 3691),(24.2) %
same,"Patients with at least 1 TEAE, %",Region Asia Pacific (N = 130),(76.9) %
same,"TEAE: GI disorders, %",Region Asia Pacific (N = 130),(18.5) %
same,"TEAE: General disorders and administration site condition, %",Region Asia Pacific (N = 130),(22.3) %
same,"TEAE: Musculoskeletal and connective tissue disorders, %",Region Asia Pacific (N = 130),(17.7) %
same,"TEAE: Nervous system disorders, %",Region Asia Pacific (N = 130),(20.8) %
same,"TEAE: Respiratory, thoracic, and mediastinal disorders, %",Region Asia Pacific (N = 130),(17.7) %
same,"Patients with at least 1 TEAE, %",[3],(58.1) %
same,"TEAE: GI disorders, %",[3],(11.9) %
same,"Patients with at least 1 TEAE, %",Region Westernized (N = 2906),(90.5) %
same,"TEAE: GI disorders, %",Region Westernized (N = 2906),(41.3) %
same,"TEAE: General disorders and administration site condition, %",Region Westernized (N = 2906),(32.2) %
same,"TEAE: Musculoskeletal and connective tissue disorders, %",Region Westernized (N = 2906),(46.4) %
same,"TEAE: Nervous system disorders, %",Region Westernized (N = 2906),(30.0) %
